Experimental data taken from ChEMBL document CHEMBL5291721, “A preclinical secondary pharmacology resource illuminates target-adverse drug reaction associations of marketed drugs” (Nat Commun, 2023).

Columns and labels:
Bile salt export pump = Bile salt export pump (Homo sapiens, UniProt O95342); format: functional
[1] = target: Voltage-gated inwardly rectifying potassium channel KCNH2 (Homo sapiens, UniProt Q12809); format: functional; settings: read-out: AC50
Thromboxane A2 receptor [2] = target: T1, Thromboxane A2 receptor (Homo sapiens, UniProt P21731); format: functional, cell-based
T1 sequence (P21731 whole entry): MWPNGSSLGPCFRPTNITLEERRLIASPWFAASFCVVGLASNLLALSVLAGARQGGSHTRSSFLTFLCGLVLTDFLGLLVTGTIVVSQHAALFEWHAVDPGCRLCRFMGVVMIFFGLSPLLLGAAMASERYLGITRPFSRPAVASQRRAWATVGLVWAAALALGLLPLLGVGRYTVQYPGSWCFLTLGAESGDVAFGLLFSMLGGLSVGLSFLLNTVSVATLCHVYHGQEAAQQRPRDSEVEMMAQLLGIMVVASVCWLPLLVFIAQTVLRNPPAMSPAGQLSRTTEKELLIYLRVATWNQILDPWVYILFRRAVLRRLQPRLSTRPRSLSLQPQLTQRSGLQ

[3] = target: Sodium-dependent noradrenaline transporter (Homo sapiens, UniProt P23975)
[4] = target: cGMP-inhibited 3',5'-cyclic phosphodiesterase 3A (Homo sapiens, UniProt Q14432); format: functional
D(3) dopamine receptor = D(3) dopamine receptor (Homo sapiens, UniProt P35462)
[5] = target: 3',5'-cyclic-AMP phosphodiesterase 4A (Homo sapiens, UniProt P27815); format: functional
Mu-type opioid receptor = Mu-type opioid receptor (Homo sapiens, UniProt P35372)
Prothrombin = Prothrombin (Homo sapiens, UniProt P00734); format: functional
[6] = target: T2, Prostaglandin G/H synthase 1 (Homo sapiens, UniProt P23219); format: functional
[7] = target: T3, Muscarinic acetylcholine receptor M2 (Homo sapiens, UniProt P08172)
T3 sequence (P08172 whole entry): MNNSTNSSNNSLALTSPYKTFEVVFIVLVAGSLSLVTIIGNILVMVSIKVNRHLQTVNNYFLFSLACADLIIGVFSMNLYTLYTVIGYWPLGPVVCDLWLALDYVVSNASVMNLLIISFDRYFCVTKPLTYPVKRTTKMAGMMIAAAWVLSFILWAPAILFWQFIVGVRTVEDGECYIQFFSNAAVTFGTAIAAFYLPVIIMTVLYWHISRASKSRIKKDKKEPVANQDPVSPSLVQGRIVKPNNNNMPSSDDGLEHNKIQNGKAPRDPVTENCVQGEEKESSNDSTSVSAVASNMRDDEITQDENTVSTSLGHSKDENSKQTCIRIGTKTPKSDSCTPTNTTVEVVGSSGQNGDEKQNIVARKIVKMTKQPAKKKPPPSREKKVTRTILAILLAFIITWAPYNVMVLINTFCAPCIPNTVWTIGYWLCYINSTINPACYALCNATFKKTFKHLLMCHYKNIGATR

Histamine H3 receptor = Histamine H3 receptor (Homo sapiens, UniProt Q9Y5N1)
[8] = target: T4, Amine oxidase [flavin-containing] A (Homo sapiens, UniProt P21397); format: functional
T4 sequence (P21397 whole entry): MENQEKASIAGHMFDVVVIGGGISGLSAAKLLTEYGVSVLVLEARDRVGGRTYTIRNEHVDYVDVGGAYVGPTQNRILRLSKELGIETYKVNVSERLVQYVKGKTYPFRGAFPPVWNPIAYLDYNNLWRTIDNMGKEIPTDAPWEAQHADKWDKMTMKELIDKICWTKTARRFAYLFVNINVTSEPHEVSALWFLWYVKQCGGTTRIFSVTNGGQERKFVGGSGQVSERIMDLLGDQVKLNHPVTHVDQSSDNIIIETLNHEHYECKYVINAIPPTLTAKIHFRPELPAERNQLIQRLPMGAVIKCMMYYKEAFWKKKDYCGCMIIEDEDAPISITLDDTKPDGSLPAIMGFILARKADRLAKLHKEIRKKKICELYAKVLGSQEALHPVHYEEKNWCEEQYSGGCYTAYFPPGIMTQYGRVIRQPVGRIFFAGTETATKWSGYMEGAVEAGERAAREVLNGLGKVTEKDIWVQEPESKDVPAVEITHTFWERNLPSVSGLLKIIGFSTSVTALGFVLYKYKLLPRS

[9] = target: 5-hydroxytryptamine receptor 2B (Homo sapiens, UniProt P41595); format: functional, cell-based
D(1A) dopamine receptor = D(1A) dopamine receptor (Homo sapiens, UniProt P21728)
Thromboxane A2 receptor [10] = target: T1, Thromboxane A2 receptor; format: functional, cell-based; remark: listed apart in the source
[11] = target: T5, 5-hydroxytryptamine receptor 1A (Homo sapiens, UniProt P08908)
T5 sequence (P08908 whole entry): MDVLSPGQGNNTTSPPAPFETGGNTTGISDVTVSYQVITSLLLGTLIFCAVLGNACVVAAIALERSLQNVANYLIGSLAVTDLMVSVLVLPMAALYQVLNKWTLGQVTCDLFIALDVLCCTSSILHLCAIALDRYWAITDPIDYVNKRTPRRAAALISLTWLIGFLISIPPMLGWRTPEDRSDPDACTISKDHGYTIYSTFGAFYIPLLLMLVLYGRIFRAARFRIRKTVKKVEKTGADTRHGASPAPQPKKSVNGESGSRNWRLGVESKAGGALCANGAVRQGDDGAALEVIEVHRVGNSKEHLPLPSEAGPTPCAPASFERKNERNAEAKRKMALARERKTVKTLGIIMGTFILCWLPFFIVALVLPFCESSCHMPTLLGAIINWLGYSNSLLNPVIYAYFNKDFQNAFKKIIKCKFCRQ

Acetylcholinesterase = Acetylcholinesterase (Homo sapiens, UniProt P22303); format: functional
[12] = target: Sodium-dependent dopamine transporter (Homo sapiens, UniProt Q01959)
[13] = target: T2, Prostaglandin G/H synthase 1; format: functional; remark: listed apart in the source
Further: assay procedure not described here.

Sequence of Acetylcholinesterase (P22303 whole entry): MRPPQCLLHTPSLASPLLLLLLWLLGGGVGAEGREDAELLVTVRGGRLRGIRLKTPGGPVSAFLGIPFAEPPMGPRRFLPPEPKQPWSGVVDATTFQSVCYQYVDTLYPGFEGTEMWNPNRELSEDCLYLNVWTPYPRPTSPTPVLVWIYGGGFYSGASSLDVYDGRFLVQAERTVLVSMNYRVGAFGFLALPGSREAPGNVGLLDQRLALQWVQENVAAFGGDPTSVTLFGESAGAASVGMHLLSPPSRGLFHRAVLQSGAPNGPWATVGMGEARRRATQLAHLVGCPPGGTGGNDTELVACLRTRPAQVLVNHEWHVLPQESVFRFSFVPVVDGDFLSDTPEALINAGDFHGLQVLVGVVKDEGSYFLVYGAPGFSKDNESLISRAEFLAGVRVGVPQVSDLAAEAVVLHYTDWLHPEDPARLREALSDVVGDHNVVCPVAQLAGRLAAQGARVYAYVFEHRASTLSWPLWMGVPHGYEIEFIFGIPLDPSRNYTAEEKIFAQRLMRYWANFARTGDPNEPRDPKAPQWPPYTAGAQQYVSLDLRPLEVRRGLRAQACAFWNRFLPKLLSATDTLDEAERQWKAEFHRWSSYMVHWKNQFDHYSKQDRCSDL
Sequence of Histamine H3 receptor (Q9Y5N1 whole entry): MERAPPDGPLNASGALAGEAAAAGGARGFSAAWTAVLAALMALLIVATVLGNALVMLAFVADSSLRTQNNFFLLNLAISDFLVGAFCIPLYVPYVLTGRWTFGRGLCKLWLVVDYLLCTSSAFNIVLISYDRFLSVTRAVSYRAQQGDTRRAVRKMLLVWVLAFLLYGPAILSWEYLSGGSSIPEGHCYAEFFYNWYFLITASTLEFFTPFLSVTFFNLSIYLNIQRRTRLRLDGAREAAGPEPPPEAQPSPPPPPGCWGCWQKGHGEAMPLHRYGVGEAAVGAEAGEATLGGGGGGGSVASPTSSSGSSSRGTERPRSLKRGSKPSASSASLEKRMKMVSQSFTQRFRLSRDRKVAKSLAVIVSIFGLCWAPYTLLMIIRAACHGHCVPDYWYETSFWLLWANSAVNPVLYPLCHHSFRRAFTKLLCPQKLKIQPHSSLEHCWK
Sequence of Mu-type opioid receptor (P35372 whole entry): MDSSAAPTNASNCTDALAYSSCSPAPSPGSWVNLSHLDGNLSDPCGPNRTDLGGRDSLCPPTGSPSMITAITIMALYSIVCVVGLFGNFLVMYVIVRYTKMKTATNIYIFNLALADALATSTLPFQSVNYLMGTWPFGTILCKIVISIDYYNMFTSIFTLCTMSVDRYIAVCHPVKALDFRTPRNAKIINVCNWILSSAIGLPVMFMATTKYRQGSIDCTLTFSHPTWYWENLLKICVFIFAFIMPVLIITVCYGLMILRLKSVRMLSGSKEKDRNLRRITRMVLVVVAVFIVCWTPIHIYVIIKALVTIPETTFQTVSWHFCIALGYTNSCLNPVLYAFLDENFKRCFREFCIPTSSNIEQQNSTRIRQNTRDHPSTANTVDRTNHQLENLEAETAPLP
Sequence of 3',5'-cyclic-AMP phosphodiesterase 4A (P27815 whole entry): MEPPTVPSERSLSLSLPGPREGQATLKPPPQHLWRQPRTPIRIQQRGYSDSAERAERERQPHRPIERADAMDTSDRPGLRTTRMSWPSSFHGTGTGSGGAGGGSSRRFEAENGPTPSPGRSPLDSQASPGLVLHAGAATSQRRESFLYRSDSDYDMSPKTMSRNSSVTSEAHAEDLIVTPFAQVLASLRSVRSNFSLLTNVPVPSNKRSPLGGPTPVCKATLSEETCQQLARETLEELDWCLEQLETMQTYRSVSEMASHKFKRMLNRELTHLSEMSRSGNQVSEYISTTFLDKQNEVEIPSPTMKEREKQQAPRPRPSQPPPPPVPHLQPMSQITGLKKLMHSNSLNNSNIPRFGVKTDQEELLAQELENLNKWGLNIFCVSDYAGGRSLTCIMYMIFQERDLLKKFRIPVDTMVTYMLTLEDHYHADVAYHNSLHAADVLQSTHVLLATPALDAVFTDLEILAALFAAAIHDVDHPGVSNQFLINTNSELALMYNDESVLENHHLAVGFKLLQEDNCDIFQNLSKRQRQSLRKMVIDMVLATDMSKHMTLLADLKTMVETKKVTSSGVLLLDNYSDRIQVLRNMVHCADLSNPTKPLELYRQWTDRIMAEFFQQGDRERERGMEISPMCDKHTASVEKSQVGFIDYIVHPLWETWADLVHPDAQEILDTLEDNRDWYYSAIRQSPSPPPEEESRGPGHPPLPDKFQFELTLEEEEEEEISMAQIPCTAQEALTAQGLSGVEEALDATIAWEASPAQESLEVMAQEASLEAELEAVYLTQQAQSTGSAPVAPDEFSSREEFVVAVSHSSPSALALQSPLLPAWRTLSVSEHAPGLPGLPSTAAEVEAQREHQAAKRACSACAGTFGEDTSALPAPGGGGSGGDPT
Sequence of 5-hydroxytryptamine receptor 2B (P41595 whole entry): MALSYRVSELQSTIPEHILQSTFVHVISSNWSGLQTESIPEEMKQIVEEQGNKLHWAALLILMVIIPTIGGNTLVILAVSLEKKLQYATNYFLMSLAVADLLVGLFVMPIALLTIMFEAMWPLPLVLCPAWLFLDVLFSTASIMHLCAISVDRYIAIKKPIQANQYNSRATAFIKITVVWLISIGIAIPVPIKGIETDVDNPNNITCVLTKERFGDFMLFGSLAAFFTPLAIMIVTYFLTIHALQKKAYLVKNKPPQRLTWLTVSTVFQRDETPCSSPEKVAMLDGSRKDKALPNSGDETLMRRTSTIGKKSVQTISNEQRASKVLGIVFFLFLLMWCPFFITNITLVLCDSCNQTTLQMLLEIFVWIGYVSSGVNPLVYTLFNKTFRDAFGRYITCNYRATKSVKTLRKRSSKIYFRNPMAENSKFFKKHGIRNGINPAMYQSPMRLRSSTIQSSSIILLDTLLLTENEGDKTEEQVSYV
Sequence of D(1A) dopamine receptor (P21728 whole entry): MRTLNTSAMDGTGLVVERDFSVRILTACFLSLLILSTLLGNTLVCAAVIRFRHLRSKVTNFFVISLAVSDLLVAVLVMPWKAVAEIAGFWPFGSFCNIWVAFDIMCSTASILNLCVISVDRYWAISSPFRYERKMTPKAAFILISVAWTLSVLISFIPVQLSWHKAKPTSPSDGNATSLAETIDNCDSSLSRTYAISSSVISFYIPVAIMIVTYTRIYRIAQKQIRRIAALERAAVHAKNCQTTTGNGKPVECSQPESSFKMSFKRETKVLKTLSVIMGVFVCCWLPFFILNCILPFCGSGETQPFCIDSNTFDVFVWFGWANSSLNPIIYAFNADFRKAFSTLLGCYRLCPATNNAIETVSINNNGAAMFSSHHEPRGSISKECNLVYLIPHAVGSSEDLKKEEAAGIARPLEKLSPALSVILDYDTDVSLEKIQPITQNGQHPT
T2 sequence (P23219 whole entry): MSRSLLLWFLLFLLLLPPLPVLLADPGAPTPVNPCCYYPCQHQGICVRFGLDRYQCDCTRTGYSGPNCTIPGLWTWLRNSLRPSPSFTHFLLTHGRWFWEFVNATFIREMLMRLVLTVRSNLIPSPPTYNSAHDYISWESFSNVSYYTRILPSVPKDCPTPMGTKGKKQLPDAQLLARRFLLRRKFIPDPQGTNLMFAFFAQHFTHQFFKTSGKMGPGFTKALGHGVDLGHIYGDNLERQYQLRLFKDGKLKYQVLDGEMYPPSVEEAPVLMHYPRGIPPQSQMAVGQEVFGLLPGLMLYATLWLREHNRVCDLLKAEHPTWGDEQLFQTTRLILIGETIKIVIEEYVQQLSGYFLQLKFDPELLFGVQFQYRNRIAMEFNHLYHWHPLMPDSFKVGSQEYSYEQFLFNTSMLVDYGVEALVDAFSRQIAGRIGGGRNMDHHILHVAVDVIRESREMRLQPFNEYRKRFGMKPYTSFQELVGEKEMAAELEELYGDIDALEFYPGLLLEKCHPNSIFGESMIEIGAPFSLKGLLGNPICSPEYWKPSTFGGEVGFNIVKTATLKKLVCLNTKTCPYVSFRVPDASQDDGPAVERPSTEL
Sequence of Voltage-gated inwardly rectifying potassium channel KCNH2 (Q12809 whole entry): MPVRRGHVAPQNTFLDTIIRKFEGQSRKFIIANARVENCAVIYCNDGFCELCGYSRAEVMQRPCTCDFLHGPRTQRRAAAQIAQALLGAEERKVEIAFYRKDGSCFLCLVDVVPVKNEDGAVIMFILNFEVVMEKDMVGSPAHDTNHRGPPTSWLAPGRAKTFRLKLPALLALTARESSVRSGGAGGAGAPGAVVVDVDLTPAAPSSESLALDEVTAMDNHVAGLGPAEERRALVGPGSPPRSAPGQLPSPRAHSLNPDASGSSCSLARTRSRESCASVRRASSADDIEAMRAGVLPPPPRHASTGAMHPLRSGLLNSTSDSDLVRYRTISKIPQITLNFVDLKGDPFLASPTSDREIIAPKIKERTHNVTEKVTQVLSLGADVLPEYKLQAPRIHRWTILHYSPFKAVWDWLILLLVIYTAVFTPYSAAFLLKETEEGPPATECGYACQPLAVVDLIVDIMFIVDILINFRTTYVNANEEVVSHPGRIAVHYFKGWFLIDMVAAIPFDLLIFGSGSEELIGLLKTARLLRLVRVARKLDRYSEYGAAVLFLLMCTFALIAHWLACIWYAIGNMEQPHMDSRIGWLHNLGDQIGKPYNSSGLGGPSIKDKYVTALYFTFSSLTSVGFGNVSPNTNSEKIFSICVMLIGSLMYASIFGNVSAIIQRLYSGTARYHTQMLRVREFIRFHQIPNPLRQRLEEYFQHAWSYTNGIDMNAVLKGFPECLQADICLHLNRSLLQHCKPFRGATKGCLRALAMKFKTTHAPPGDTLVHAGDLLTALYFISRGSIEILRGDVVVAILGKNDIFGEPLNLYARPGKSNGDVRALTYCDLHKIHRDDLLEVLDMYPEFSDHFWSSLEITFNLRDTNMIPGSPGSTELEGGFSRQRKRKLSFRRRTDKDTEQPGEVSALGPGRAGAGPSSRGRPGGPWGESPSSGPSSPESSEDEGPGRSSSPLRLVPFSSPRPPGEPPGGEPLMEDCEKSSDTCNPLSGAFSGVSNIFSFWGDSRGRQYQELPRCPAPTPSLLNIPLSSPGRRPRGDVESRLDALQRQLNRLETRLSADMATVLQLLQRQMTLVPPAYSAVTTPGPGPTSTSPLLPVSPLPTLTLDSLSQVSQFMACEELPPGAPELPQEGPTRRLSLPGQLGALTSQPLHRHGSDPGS

Row | SMILES | AC50 (Bile salt export pump) | AC50 [1] | AC50 (Thromboxane A2 receptor [2]) | AC50 [3] | AC50 [4] | AC50 (D(3) dopamine receptor) | AC50 [5] | AC50 (Mu-type opioid receptor) | AC50 (Prothrombin) | AC50 [6] | AC50 [7] | AC50 (Histamine H3 receptor) | AC50 [8] | AC50 [9] | AC50 (D(1A) dopamine receptor) | AC50 (Thromboxane A2 receptor [10]) | AC50 [11] | AC50 (Acetylcholinesterase) | AC50 [12] | AC50 [13]
1 | CC(=N)N1CC[C@H](SC2=C(C(=O)O)N3C(=O)[C@H]([C@@H](C)O)[C@H]3C2)C1 | > 300 µM | 15 µM |  |  |  |  |  |  |  |  |  |  |  |  |  |  |  |  |  | 
2 | CC(/C=C1\SC(=S)N(CC(=O)O)C1=O)=C\c1ccccc1 | 1.6 µM | > 30 µM |  |  |  |  |  |  |  |  |  |  |  |  |  |  |  |  |  | 
3 | CC1(C)S[C@@H]2[C@H](NC(=O)[C@H](N)c3ccc(O)cc3)C(=O)N2[C@H]1C(=O)O [AMOXICILLIN] | > 300 µM |  |  |  |  |  |  |  |  |  |  |  |  |  |  |  |  |  |  | 
4 | O=C1CN2Cc3c(ccc(Cl)c3Cl)N=C2N1 [ANAGRELIDE] | > 300 µM | > 30 µM |  |  |  |  |  |  |  |  |  |  |  |  |  |  |  |  |  | 
5 | CNCC[C@@H](Oc1ccccc1C)c1ccccc1 [ATOMOXETINE] | > 300 µM |  |  |  |  |  |  |  |  |  |  |  |  |  |  |  |  |  |  | 
6 | C=C(C)[C@@H]1CCC(C)=C[C@H]1c1c(O)cc(CCCCC)cc1O [CANNABIDIOL] | 53 µM |  |  |  |  |  |  |  |  |  |  |  |  |  |  |  |  |  |  | 
7 | Clc1cccc(Cl)c1N=C1NCCN1 [CLONIDINE] | > 300 µM |  |  |  |  |  |  |  |  |  |  |  |  |  |  |  |  |  |  | 
8 | CNCC[C@H](Oc1cccc2ccccc12)c1cccs1 [DULOXETINE] | > 300 µM |  |  |  |  |  |  |  |  |  |  |  |  |  |  |  |  |  |  | 
9 | CCOc1cc(N)c(Cl)cc1C(=O)NCC1CN(Cc2ccc(F)cc2)CCO1 (centres undefined) [MOSAPRIDE] |  | > 30 µM | > 30 µM | > 30 µM | > 30 µM | 6.86 µM | > 30 µM | > 30 µM | > 30 µM | > 30 µM | > 30 µM | > 30 µM | > 30 µM | > 30 µM | > 30 µM | > 30 µM | 5.18 µM | > 30 µM | > 30 µM | > 30 µM
10 | CN(C)c1cc(CNCC(C)(C)C)c(O)c2c1C[C@H]1C[C@H]3[C@H](N(C)C)C(O)=C(C(N)=O)C(=O)[C@@]3(O)C(O)=C1C2=O [OMADACYCLINE] |  | > 30 µM | > 10 µM | > 30 µM | > 30 µM | > 30 µM | > 30 µM | > 30 µM | > 30 µM | 0.25 µM | 9.2 µM | > 30 µM | > 30 µM | > 30 µM | > 30 µM | > 30 µM | > 30 µM | > 10 µM | > 30 µM | 0.16 µM
11 | O=C1[C@H]2CCCC[C@H]2C(=O)N1CCCCN1CCN(c2nsc3ccccc23)CC1 [PEROSPIRONE] |  | 2.3 µM | 7.44 µM | 2.98 µM | > 30 µM | 0.003 µM | > 30 µM | 9.84 µM | > 30 µM | > 30 µM | 7.34 µM | > 30 µM | > 30 µM | > 30 µM | 0.054 µM | > 30 µM | 0.003 µM | > 30 µM | 3.31 µM | > 30 µM
12 | CN(C)CCC(c1ccccc1)c1ccccn1 (centres undefined) [PHENIRAMINE] |  | > 30 µM | > 30 µM | 26.3 µM | > 30 µM | > 30 µM | > 30 µM | > 30 µM | > 30 µM | > 30 µM | 24.7 µM | > 30 µM | > 30 µM | > 30 µM | > 30 µM | > 30 µM | > 30 µM | > 30 µM | > 30 µM | > 30 µM
13 | CNC[C@H](O)c1cccc(O)c1 [PHENYLEPHRINE] |  | > 30 µM | > 30 µM | > 30 µM | > 30 µM | 4.68 µM | > 30 µM | > 30 µM | > 30 µM | > 30 µM | > 30 µM | > 30 µM | > 30 µM | > 30 µM | 18.1 µM | > 30 µM | 1.31 µM | > 30 µM | 29.4 µM | > 30 µM
14 | O=C1NC(=O)C(c2ccccc2)(c2ccccc2)N1 [PHENYTOIN] | > 300 µM |  |  |  |  |  |  |  |  |  |  |  |  |  |  |  |  |  |  | 
15 | CC(C)(C)C(=O)NCCCC(=O)O [PIVAGABINE] |  | > 30 µM | > 30 µM | > 30 µM | > 30 µM | > 30 µM | > 30 µM | > 30 µM | > 30 µM | > 30 µM | > 30 µM | > 30 µM | > 30 µM | > 30 µM | > 30 µM | > 30 µM | > 30 µM | > 30 µM | > 30 µM | > 30 µM
16 | CCCN(CCC)CCc1cccc2c1CC(=O)N2 [ROPINIROLE] | > 300 µM |  |  |  |  |  |  |  |  |  |  |  |  |  |  |  |  |  |  | 
17 | CCCCNc1ccc(C(=O)OCCN(C)C)cc1 [TETRACAINE] |  | 25.9 µM | > 30 µM | > 30 µM | > 30 µM | 18.5 µM | > 30 µM | > 30 µM | > 30 µM | > 30 µM | > 30 µM | 24.2 µM | 1.41 µM | > 30 µM | > 30 µM | > 30 µM | > 30 µM | 8.1 µM | 21.9 µM | > 30 µM
18 | CN1CCN(CCCN2c3ccccc3Sc3ccc(S(=O)(=O)N(C)C)cc32)CC1 [THIOPROPERAZINE] |  | 0.4 µM | 9.38 µM | 16.8 µM | > 30 µM | 0.003 µM | > 30 µM | 11.6 µM | > 30 µM | > 30 µM | 2.66 µM | 13.7 µM | > 30 µM | > 30 µM | 0.13 µM | > 30 µM | 6.09 µM | 29 µM | 13.3 µM | 23.6 µM
19 | CCCCCCCCCCCCCCCC(=O)OC/C=C(C)/C=C/C=C(C)/C=C/C1=C(C)CCCC1(C)C [VITAMIN A PALMITATE] |  | > 30 µM | > 30 µM | > 30 µM | > 30 µM | > 30 µM | > 30 µM | > 30 µM | > 30 µM | > 30 µM | > 30 µM | > 30 µM | > 30 µM | > 30 µM | > 30 µM | > 30 µM | > 30 µM | > 30 µM | > 30 µM | > 30 µM
